The experiment has as its system adipose cells of rats. Kind of experiment: Evaluation of the sugar-transporting activity (2-[14C(U)]-deoxy-D-glucose incorporation). Type of experiment: cell-based. The following applies: rat adipose cells; for activation at 100 µg/mL: 100 μg/ml of each compound, evaluated on the basis of the reinforcing effect of insulin (100 nM); for A: sugar transporting activity (EC50): concentration having a reinforcing effect corresponding to 50% of the reinforcing effect of insulin (100%). As to the method: After the decapitation and venesection of 6 male Wistar rats (body weight: 150 to 200 g), an incision was made in the abdomen of each rat to extract 6 g in total of epididymal adipose tissues. The tissues were finely cut into 2 mm×2 mm pieces in 6 ml of KRH (Krebs-Ringer Hepes, composition: 130 mM of sodium chloride, 4.7 mM of potassium chloride, 1.2 mM of potassium dihydrogenphosphate, 1.2 mM of magnesium sulfate, 1 mM of calcium chloride and 25 mM of Hepes, pH=7.6) containing 5% of BSA (bovine serum albumin). 24 mg of collagenase (type I) was added thereto and the digestion treatment was conducted for about 40 minutes to obtain about 6 ml of isolated adipose cells. The collagenase was removed by the buffer exchange. 2% BSA/KRH solution was added to the residue for the re-suspension to obtain 45 ml of an adipose cell suspension.
The sugar-transporting activity of the compounds of the present invention was evaluated with reference to a method described in a literature [Annual Review of Biochemistry, Vol. 55, p. 1059 (1986)]. In the test, 200 μl of the adipose cell suspension was poured in each polystyrene test tube, 100 μl of the solution of the test substance (by dilution of 10 mg/ml substance dimethyl sulfoxide solution with KRH) was added thereto, and the obtained mixture was shaken and then cultured at 37° C. for 30 minutes.
The sugar-transporting activity was evaluated by measuring the quantity of 2-[^14C(U)]-deoxy-D-glucose incorporated per a unit time. Namely, 2-[^14C(U)]-deoxy-D-glucose was added to the adipose cell suspension after the pre-culture (the final concentration: 0.5 μCi/sample). 5 minutes after, cytochalasin B (final concentration: 10 μM) was added to the mixture to terminate the sugar transportation. After forming a dinonyl phthalate layer, the obtained mixture was centrifuged to separate the adipose cells from the buffer. The quantity of 2-[^14C(U)]-deoxy-D-glucose contained in the adipose cell layer was determined with a liquid scintillation counter to determine the quantity of the incorporated sugar. In this evaluation system, when insulin (100 nM) having the effect of increasing the sugar transportation was used, the effect was about 7 times as high as that obtained in the insulin-free control group.
The results of the evaluation of the sugar-transporting activity obtained by using 100 μg/ml of each compound of the present invention are shown in Table 6. The sugar transporting activity in Table 6 was evaluated on the basis of the reinforcing effect of insulin (100 nM). […] The symbols in Table 6 are as follows: • No: Example No., and • A: sugar transporting activity.
The results of the evaluation of the sugar-transporting activity obtained by using each compound of the present invention are shown in Table 7. The sugar transporting activity in Table 7 was determined in terms of the concentration (EC50: μg/ml) of a test compound, having a reinforcing effect corresponding to 50% on the basis of the reinforcing effect of insulin having a reinforcing effect of 100%.

Molecule `CCCCOc1ccc(C2Nc3ccccc3NC3=C2C(=O)NC3)c(OCC)c1` (stereo not drawn) [Example 23] returned an activation at 100 µg/mL of at least 70%.

Consider `CCOCC(=O)N1[C@@H]2CCCC[C@H]2NC2=C(C(=O)NC2)[C@H]1c1ccccc1OC` [Example 54], for which the “A: sugar transporting activity (EC50)” value worked out at 2.2 µg/mL.

Turning to `COc1ccccc1[C@@H]1C2=C(CNC2=O)N[C@@H]2CCCC[C@H]2N1C(=O)CC(C)=O` [Example 72], the “A: sugar transporting activity (EC50)” value worked out at 5.5 µg/mL.

As to `COc1cc(F)ccc1[C@@H]1C2=C(CNC2=O)N[C@@H]2CCCC[C@H]2N1C(C)=O` [Example 109], the “A: sugar transporting activity (EC50)” value came to 8 µg/mL.

`CCCCCCCCCCCCOc1ccc(C2Nc3ccccc3NC3=C2C(=O)NC3)cc1` (stereo not drawn) [Example 11] registered an activation at 100 µg/mL of 40 to 70%.

For the molecule `CCOC(=O)N1[C@@H]2CCCC[C@H]2NC2=C(C(=O)NC2)[C@H]1c1ccccc1C` [Example 124], the “A: sugar transporting activity (EC50)” value was determined as 7 µg/mL.

With `COc1ccccc1[C@@H]1C2=C(CNC2=O)N[C@@H]2CCCC[C@H]2N1C(=O)COc1ccccc1` [Example 55], the “A: sugar transporting activity (EC50)” value was determined as 4.6 µg/mL.

Regarding `COc1ccccc1[C@@H]1C2=C(CNC2=O)N[C@@H]2CCCC[C@H]2N1C(=O)CCc1ccc(F)c(F)c1` [Example 70], the “A: sugar transporting activity (EC50)” value worked out at 4.2 µg/mL.

`CCOc1ccccc1[C@@H]1C2=C(CNC2=O)N[C@@H]2CCCC[C@H]2N1C(=O)CO` [Example 92]: the “A: sugar transporting activity (EC50)” value is 3.8 µg/mL.

The molecule `CCCCOc1ccc(C2Nc3ccccc3NC3=C2C(=O)NC3)c(OCCCC)c1` (stereo not drawn) [Example 22] yielded an activation at 100 µg/mL of at least 70%.

For the molecule `CCC(=O)N1[C@@H]2CCCC[C@H]2NC2=C(C(=O)NC2)[C@H]1c1ccc(F)cc1OC` [Example 107], the “A: sugar transporting activity (EC50)” value worked out at 0.82 µg/mL.

On to `O=C1NCC2=C1C(c1ccc(Cl)cc1Cl)Nc1ccccc1N2` (stereo not drawn) [Example 20], for which the activation at 100 µg/mL fell in the range of 20 to 40%.

Regarding `CCOCC(=O)N1[C@@H]2CCCC[C@H]2NC2=C(C(=O)NC2)[C@H]1c1ccc(F)cc1OC` [Example 108], the “A: sugar transporting activity (EC50)” value came to 7.8 µg/mL.

In the case of `CCOC(=O)N1[C@@H]2CCCC[C@H]2NC2=C(C(=O)NC2)[C@H]1c1ccccc1OCC` [Example 96], the “A: sugar transporting activity (EC50)” value was found to be 7 µg/mL.

As to `CCOc1ccccc1[C@@H]1C2=C(CNC2=O)N[C@@H]2CCCC[C@H]2N1C(=O)CCc1ncco1` [Example 167], the “A: sugar transporting activity (EC50)” value came out at 0.10 µg/mL.

For `COc1ccccc1[C@@H]1C2=C(CNC2=O)N[C@@H]2CCCC[C@H]2N1C(=O)C(F)(F)F` [Example 48], the “A: sugar transporting activity (EC50)” value was determined as 4.5 µg/mL.

As for `Cc1ccccc1[C@@H]1C2=C(CNC2=O)N[C@@H]2CCCC[C@H]2N1C(=O)CCc1ccccn1` [Example 175], the “A: sugar transporting activity (EC50)” value turned out to be 0.020 µg/mL.

On to `CCNC(=O)N1[C@@H]2CCCC[C@H]2NC2=C(C(=O)NC2)[C@H]1c1ccccc1OC` [Example 84], for which the “A: sugar transporting activity (EC50)” value stood at 3.6 µg/mL.

Consider `CCCOc1cc(OCC)ccc1C1Nc2ccccc2NC2=C1C(=O)NC2` (stereo not drawn) [Example 25], for which the activation at 100 µg/mL lay within 40 to 70%.

For `CCCC(=O)N1[C@@H]2CCCC[C@H]2NC2=C(C(=O)NC2)[C@H]1c1ccccc1OCC` [Example 89], the “A: sugar transporting activity (EC50)” value turned out to be 1.3 µg/mL.

`CC(=O)N1[C@@H]2CCCC[C@H]2NC2=C(C(=O)NC2)[C@H]1c1ccccc1N` [Example 158]: the “A: sugar transporting activity (EC50)” value came to 12 µg/mL.

Turning to `CC=CC(=O)N1C(c2ccccc2OC)C2=C(CNC2=O)NC2CCCCC21` (stereo not drawn) [Example 59], the “A: sugar transporting activity (EC50)” value worked out at 1.1 µg/mL.

Take `CCCNC(=O)N1[C@@H]2CCCC[C@H]2NC2=C(C(=O)NC2)[C@H]1c1ccccc1OC` [Example 85]: the “A: sugar transporting activity (EC50)” value came to 7 µg/mL.

In the case of `O=C1NCC2=C1C(c1ccc(OCCC34CC5CC(CC(C5)C3)C4)cc1)Nc1ccccc1N2` (stereo not drawn) [Example 15], the activation at 100 µg/mL was 40 to 70%.

Consider `COc1ccccc1[C@@H]1C2=C(CNC2=O)N[C@@H]2CCCC[C@H]2N1C(=O)CO` [Example 51], for which the “A: sugar transporting activity (EC50)” value worked out at 2 µg/mL.

With `COc1ccccc1[C@@H]1C2=C(CNC2=O)N[C@@H]2CCCC[C@H]2N1C(=O)CCc1ncccn1` [Example 177], the “A: sugar transporting activity (EC50)” value is 0.10 µg/mL.

Take `COc1ccccc1[C@@H]1C2=C(CNC2=O)N[C@@H]2CCCC[C@H]2N1C(=O)CCN` [Example 66]: the “A: sugar transporting activity (EC50)” value was found to be 8 µg/mL.

For the molecule `CCOCC(=O)N1[C@@H]2CCCC[C@H]2NC2=C(C(=O)NC2)[C@H]1c1ccccc1CC` [Example 129], the “A: sugar transporting activity (EC50)” value came out at 5.4 µg/mL.

Molecule `O=C1NCC2=C1C(c1ccc(OC3CCCCCC3)cc1)Nc1ccccc1N2` (stereo not drawn) [Example 12] displayed an activation at 100 µg/mL of 20 to 40%.

As to `COc1ccccc1[C@@H]1C2=C(CNC2=O)N[C@@H]2CCCC[C@H]2N1C(=O)CCc1ncc(C)s1` [Example 174], the “A: sugar transporting activity (EC50)” value is 0.050 µg/mL.

In the case of `O=C1NCC2=C1C(c1ccc(OC3C4CC5CC(C4)CC3C5)cc1)Nc1ccccc1N2` (stereo not drawn) [Example 13], the activation at 100 µg/mL lay within 40 to 70%.

With `COc1cc(Cl)ccc1[C@@H]1C2=C(CNC2=O)N[C@@H]2CCCC[C@H]2N1C(C)=O` [Example 110], the “A: sugar transporting activity (EC50)” value is 6 µg/mL.

With `CCCOc1ccc(C2Nc3ccccc3NC3=C2C(=O)NC3)c(OCC)c1` (stereo not drawn) [Example 26], the activation at 100 µg/mL is 40 to 70%.

Molecule `CC(C)(C)c1ccc(C2Nc3ccccc3NC3=C2C(=O)NC3)cc1` (stereo not drawn) [Example 5] had an activation at 100 µg/mL of 20 to 40%.

Regarding `COC(=O)N1[C@@H]2CCCC[C@H]2NC2=C(C(=O)NC2)[C@H]1c1ccccc1F` [Example 151], the “A: sugar transporting activity (EC50)” value was determined as 2 µg/mL.

Take `COc1cccc([C@@H]2C3=C(CNC3=O)N[C@@H]3CCCC[C@H]3N2C(C)=O)c1OC` [Example 114]: the “A: sugar transporting activity (EC50)” value amounted to 12 µg/mL.

For `CCCCOc1ccc([C@H]2N[C@@H]3CCCC[C@H]3NC3=C2C(=O)NC3)c(OCCCC)c1` [Example 40], the activation at 100 µg/mL is at least 70%.

The molecule `O=C1NCC2=C1C(c1ccc(-c3ccc([N+](=O)[O-])cc3)cc1)Nc1ccccc1N2` (stereo not drawn) [Example 8] yielded an activation at 100 µg/mL of at least 70%.

Molecule `O=C1NCC2=C1[C@@H](c1ccc(Br)cc1)N[C@@H]1CCCC[C@H]1N2` [Example 37] registered an activation at 100 µg/mL of 40 to 70%.

In the case of “insulin: insulin (100 nM) having the effect of increasing the sugar transportation; reference for the reinforcing effect [reference compound]”, the “effect of increasing the sugar transportation relative to insulin-free control group” value (insulin 100 nM) was “about 7 times”.

Take `COC(=O)N1[C@@H]2CCCC[C@H]2NC2=C(C(=O)NC2)[C@H]1c1ccccc1Cl` [Example 147]: the “A: sugar transporting activity (EC50)” value was determined as 2.4 µg/mL.

As to `COCCC(=O)N1[C@@H]2CCCC[C@H]2NC2=C(C(=O)NC2)[C@H]1c1ccccc1OC` [Example 67], the “A: sugar transporting activity (EC50)” value was determined as 3.4 µg/mL.

Turning to `COc1ccc([C@@H]2C3=C(CNC3=O)N[C@@H]3CCCC[C@H]3N2C(C)=O)cc1` [Example 160], the “A: sugar transporting activity (EC50)” value amounted to 4.4 µg/mL.

Consider `COc1ccccc1[C@@H]1C2=C(CNC2=O)N[C@@H]2CCCC[C@H]2N1C(=O)c1ccccn1` [Example 76], for which the “A: sugar transporting activity (EC50)” value was determined as 10 µg/mL.

As to `CCOc1ccccc1[C@@H]1C2=C(CNC2=O)N[C@@H]2CCCC[C@H]2N1C(=O)OC` [Example 95], the “A: sugar transporting activity (EC50)” value stood at 1.5 µg/mL.

For `O=C1NCC2=C1[C@@H](c1ccccc1Br)N(C(=O)CC(F)(F)F)[C@@H]1CCCC[C@H]1N2` [Example 134], the “A: sugar transporting activity (EC50)” value was 0.5 µg/mL.

With `CCC(=O)N1[C@@H]2CCCC[C@H]2NC2=C(C(=O)NC2)[C@H]1c1ccccc1OC` [Example 46], the “A: sugar transporting activity (EC50)” value worked out at 0.77 µg/mL.

For the molecule `CC(=O)OCC(=O)N1[C@@H]2CCCC[C@H]2NC2=C(C(=O)NC2)[C@H]1c1ccccc1C` [Example 120], the “A: sugar transporting activity (EC50)” value stood at 8 µg/mL.

Source of the values: patent publication US7632830B2, “Lactam compounds and pharmaceutical use thereof” (Ajinomoto Co., Inc., priority 2000, dated 2009).
